{"source": "paper PMC11674305", "about": "“Inhibition of Neural Crest Cell Migration by Strobilurin Fungicides and Other Mitochondrial Toxicants” (Cells, 2024)", "tested_on": "neural crest cells (NCC)", "type": "cell-based, human", "procedure": "The research group initially developed the first version of the test in 2012 [40]. The test has been further improved and characterized. To perform the cMINC assay, NCCs were thawed in N2-S Medium and seeded on the day of migration-1 (DoM-1) on a 96-well polystyrene plate (Corning, Glendale, AZ, USA) around stoppers, to create a cell-free area of 2 mm diameter (Platypus Technologies, Madison, WI, USA). The cells were resuspended in N2-S Medium supplemented with […] of the cytokines EGF and FGF, and then counted and seeded around the stoppers at a density of 95,000 cells/cm^2. After 24 h, the stoppers were removed, and the medium was exchanged. […]\nOn day 2, cells were stained with 533 nM calcein-AM and 1 μg/mL H-33342 (both from Sigma, Steinheim, Germany) and observed using two different channels on the Cellomics ArrayScan VTI imaging microscope (Thermo Fisher, Pittsburgh, PA, USA) to assess viability and migration. […] Cell viability was assessed by taking four pictures outside of the ROI with 10× magnification objective. Viable cells were defined as H-33342 and calcein-AM double-positive cells and calculated by an automatic algorithm of the ArrayScan VTI 700 Series software as described earlier. […] The average response (relative to solvent control) of the lowest two test concentrations was calculated, and all other data points of the same curve were divided by this average value. […]"}
{"compound": "CO/C=C(/C(=O)OC)c1ccccc1COc1cccc(C(F)(F)F)n1", "note": "[Picoxystrobin, picoxystrobin]", "values": [{"measurement": "BMC10 (V)", "result": 2.8, "unit": "µM"}, {"measurement": "concentration range at which migration was inhibited", "setting": "galactose medium", "result": "~100", "unit": "nM"}]}
